Columns and labels:
Type in all cases: in vivo
[1] = tested on: bermudagrass (Cynodon dactylon); assay: Test B pre-/postemergence plant response; settings: for Bermudagrass plant response rating: 8 g ai/ha
Text: (§1) Seeds of plant species selected from blackgrass (Alopecurus myosuroides), downy bromegrass (Bromus tectorum), green foxtail (Setaria viridis), Italian ryegrass (Lolium multiflorum), wheat (Triticum aestivum), wild oat (Avena fatua), catchweed bedstraw (Galium aparine), bermudagrass (Cynodon dactylon), surinam grass (Brachiaria decumbens), cocklebur (Xanthium strumarium), corn (Zea mays), large crabgrass (Digitaria sanguinalis), woolly cupgrass (Eriochloa villosa), giant foxtail (Setaria faberii), goosegrass (Eleusine indica), johnsongrass (Sorghum halepense), kochia (Kochia scoparia), lambsquarters (Chenopodium album), morningglory (Ipomoea coccinea), eastern black (E.B.) nightshade (Solanum ptycanthum), yellow nutsedge (Cyperus esculentus), pigweed (Amaranthus retroflexus), common ragweed (Ambrosia elation), Russian thistle (Salsola iberica), soybean (Glycine max), common (oilseed) sunflower (Helianthus annuus), and velvetleaf (Abutilon theophrasti) were planted and treated preemergence with test chemicals formulated in a non-phytotoxic solvent mixture which included a surfactant.
(§2) At the same time, plants selected from these crop and weed species and also winter barley (Hordeum vulgare), canarygrass (Phalaris minor), chickweed (Stellaria media) and windgrass (Apera spica-venti) were treated with postemergence applications of some of the test chemicals formulated in the same manner. Plants ranged in height from 2 to 18 cm (1- to 4-leaf stage) for postemergence treatments.
(§3) Plant species in the flooded paddy test consisted of rice (Oryza sativa), umbrella sedge (Cyperus difformis), ducksalad (Heteranthera limosa) and barnyardgrass (Echinochloa crus-galli) grown to the 2-leaf stage for testing. At time of treatment, test pots were flooded to 3 cm above the soil surface, treated by application of test compounds directly to the paddy water, and then maintained at that water depth for the duration of the test. Treated plants and controls were maintained in a greenhouse for 13 to 15 days, after which time all species were compared to controls and visually evaluated. Plant response ratings, summarized in Table B, are based on a scale of 0 to 100 where 0 is no effect and 100 is complete control. A dash (-) response means no test result.

[2] = tested on: corn (Zea mays); assay: Test B pre-/postemergence plant response; settings: for Corn plant response rating: 8 g ai/ha
Text: as §1, §2, §3

[3] = tested on: woolly cupgrass (Eriochloa villosa); assay: Test B pre-/postemergence plant response; settings: for Cupgrass, Woolly plant response rating: 8 g ai/ha
Text: as §1, §2, §3

[4] = tested on: downy bromegrass (Bromus tectorum); assay: Test B pre-/postemergence plant response; settings: for Bromegrass, Downy plant response rating: 8 g ai/ha
Text: as §1, §2, §3

[5] = tested on: Russian thistle (Salsola iberica); assay: Test B pre-/postemergence plant response; settings: Preemergence
Text: as §1, §2, §3

[6] = tested on: velvetleaf (Abutilon theophrasti); assay: Test B pre-/postemergence plant response; settings: for Velvetleaf plant response rating: 8 g ai/ha
Text: as §1, §2, §3

[7] = tested on: yellow nutsedge (Cyperus esculentus); assay: Test B pre-/postemergence plant response; settings: for Nutsedge, Yellow plant response rating: 8 g ai/ha
Text: as §1, §2, §3

[8] = tested on: Italian ryegrass (Lolium multiflorum); assay: Test B pre-/postemergence plant response; settings: for Ryegrass, Italian plant response rating: 8 g ai/ha
Text: as §1, §2, §3

[9] = tested on: giant foxtail (Setaria faberii); assay: Test B pre-/postemergence plant response; settings: for Foxtail, Giant plant response rating: 8 g ai/ha
Text: as §1, §2, §3

[10] = tested on: cocklebur (Xanthium strumarium); assay: Test B pre-/postemergence plant response; settings: for Cocklebur plant response rating: 8 g ai/ha
Text: as §1, §2, §3

[11] = tested on: rice (Oryza sativa); assay: Test B flooded paddy test plant response
Summary of the method: (§4)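 Step one: raise plants to 2 leaves. Step two: flood pots 3 cm over the soil and apply compound into the water, keeping this depth. Step three: after 13–15 greenhouse days, score visually versus controls, 0–100, where 100 means complete control.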

[12] = tested on: ducksalad (Heteranthera limosa); assay: Test B flooded paddy test plant response
Summary of the method: as §4

[13] = tested on: umbrella sedge (Cyperus difformis); assay: Test B flooded paddy test plant response
Summary of the method: as §4

[14] = tested on: barnyardgrass (Echinochloa crus-galli); assay: Test B flooded paddy test plant response
Summary of the method: as §4

[15] = Postemergence, 16 g ai/ha, scale 0 to 100
[16] = Postemergence, 31 g ai/ha, scale 0 to 100, 0 no effect, 100 complete control
[17] = Postemergence, 62 g ai/ha, scale 0 to 100, 0 no effect, 100 complete control
[18] = Preemergence, 16 g ai/ha, scale 0 to 100 (0 no effect, 100 complete control)
[19] = Preemergence, 31 g ai/ha, 0 to 100 scale, 0 no effect, 100 complete control
[20] = Preemergence, 62 g ai/ha, scale 0 to 100
[21] = Flood (flooded paddy test), 62 g ai/ha, scale 0 to 100, 0 no effect, 100 complete control
[22] = Flood (flooded paddy test), 125 g ai/ha, scale 0 to 100, 0 no effect, 100 complete control
[23] = Flood, 31 g ai/ha, scale 0 to 100

For `Cc1cc(-c2ccc(Cl)cc2)nn1-c1c(OS(=O)(=O)c2ccccc2)cnn(C)c1=O` [Compound 35], the “Bermudagrass plant response rating” value ([1]; postemergence, 0-100 scale) was 40, the “Plant response rating, Bermudagrass” value [1, 15] was 65 and the “Plant response rating, Bermudagrass” value [1, 16] was 100. The “Plant response rating, Bermudagrass” value [1, 17] was 100, the “Bermudagrass plant response rating” value ([1]; Preemergence, scale 0 to 100 (0 no effect, 100 complete control)) was 98 and the “Plant response rating, Bermudagrass” value [1, 18] was 98. For the same compound, the “Plant response rating, Bermudagrass” value [1, 19] was 100, the “Plant response rating, Bermudagrass” value [1, 20] was 100 and the “Corn plant response rating” value ([2]; postemergence, 0-100 scale) was 40. The “Plant response rating, Corn” value [2, 15] was 90, the “Plant response rating, Corn” value [2, 16] was 100 and the “Plant response rating, Corn” value [2, 17] was 100. For the same compound, the “Plant response rating, Corn” value [2, 18] was 40, the “Plant response rating, Corn” value [2, 19] was 55 and the “Plant response rating, Corn” value [2, 20] was 90. For the same compound, the “Corn plant response rating” value ([2]; Preemergence, scale 0 to 100) was 5, the “Cupgrass, Woolly plant response rating” value ([3]; postemergence, 0-100 scale) was 80 and the “Plant response rating, Cupgrass, Woolly” value [3, 15] was 95. For the same compound, the “Plant response rating, Cupgrass, Woolly” value [3, 16] was 100, the “Plant response rating, Cupgrass, Woolly” value [3, 17] was 100 and the “Plant response rating, Cupgrass, Woolly” value [3, 18] was 35. For the same compound, the “Plant response rating, Cupgrass, Woolly” value [3, 19] was 100, the “Plant response rating, Cupgrass, Woolly” value [3, 20] was 100 and the “Cupgrass, Woolly plant response rating” value ([3]; Preemergence, scale 0 to 100) was 35. The “Bromegrass, Downy plant response rating” value ([4]; postemergence, 0-100 scale) was 0, the “Plant response rating, Bromegrass, Downy” value [4, 15] was 20 and the “Plant response rating, Bromegrass, Downy” value [4, 16] was 20. The “Plant response rating, Bromegrass, Downy” value [4, 17] was 60, the “Plant response rating, Bromegrass, Downy” value [4, 18] was 40 and the “Plant response rating, Bromegrass, Downy” value [4, 19] was 40. The “Plant response rating, Bromegrass, Downy” value [4, 20] was 60, the “Bromegrass, Downy plant response rating” value ([4]; Preemergence, scale 0 to 100) was 40 and the “Plant response rating, Russian Thistle” value ([5]; 16 g ai/ha, scale 0 to 100 (0 no effect, 100 complete control)) was 0. For the same compound, the “Plant response rating, Russian Thistle” value ([5]; 31 g ai/ha, 0 to 100 scale, 0 no effect, 100 complete control) was 0, the “Plant response rating, Russian Thistle” value ([5]; 62 g ai/ha, scale 0 to 100) was 0 and the “Russian Thistle plant response rating” value ([5]; 8 g ai/ha, scale 0 to 100) was 0. The “Velvetleaf plant response rating” value ([6]; postemergence, 0-100 scale) was 0, the “Plant response rating, Velvetleaf” value [6, 15] was 0 and the “Plant response rating, Velvetleaf” value [6, 17] was 0. The “Plant response rating, Velvetleaf” value [6, 18] was 0, the “Plant response rating, Velvetleaf” value [6, 19] was 0 and the “Plant response rating, Velvetleaf” value [6, 20] was 0. For the same compound, the “Velvetleaf plant response rating” value ([6]; Preemergence, scale 0 to 100) was 0, the “Nutsedge, Yellow plant response rating” value ([7]; postemergence, 0-100 scale) was 0 and the “Plant response rating, Nutsedge, Yellow” value [7, 15] was 0. The “Plant response rating, Nutsedge, Yellow” value [7, 16] was 0, the “Plant response rating, Nutsedge, Yellow” value [7, 17] was 0 and the “Plant response rating, Nutsedge, Yellow” value [7, 18] was 0. The “Plant response rating, Nutsedge, Yellow” value [7, 19] was 0, the “Plant response rating, Nutsedge, Yellow” value [7, 20] was 0 and the “Nutsedge, Yellow plant response rating” value ([7]; Preemergence, scale 0 to 100) was 0. For the same compound, the “Ryegrass, Italian plant response rating” value ([8]; postemergence, 0-100 scale) was 40, the “Plant response rating, Ryegrass, Italian” value [8, 15] was 40 and the “Plant response rating, Ryegrass, Italian” value [8, 16] was 90. The “Plant response rating, Ryegrass, Italian” value [8, 17] was 98, the “Plant response rating, Ryegrass, Italian” value [8, 18] was 100 and the “Plant response rating, Ryegrass, Italian” value [8, 19] was 100. The “Plant response rating, Ryegrass, Italian” value [8, 20] was 100, the “Ryegrass, Italian plant response rating” value ([8]; Preemergence, scale 0 to 100) was 100 and the “Foxtail, Giant plant response rating” value ([9]; postemergence, 0-100 scale) was 90. The “Plant response rating, Foxtail, Giant” value [9, 15] was 98, the “Plant response rating, Foxtail, Giant” value [9, 16] was 100 and the “Plant response rating, Foxtail, Giant” value [9, 17] was 100. The “Plant response rating, Foxtail, Giant” value [9, 18] was 100, the “Plant response rating, Foxtail, Giant” value [9, 19] was 100 and the “Plant response rating, Foxtail, Giant” value [9, 20] was 100. For the same compound, the “Foxtail, Giant plant response rating” value ([9]; Preemergence, scale 0 to 100) was 100, the “Cocklebur plant response rating” value ([10]; postemergence, 0-100 scale) was 0 and the “Plant response rating, Cocklebur” value [10, 15] was 0. For the same compound, the “Plant response rating, Cocklebur” value [10, 16] was 0, the “Plant response rating, Cocklebur” value [10, 17] was 0 and the “Plant response rating, Cocklebur” value [10, 18] was 0. The “Plant response rating, Cocklebur” value [10, 19] was 0, the “Plant response rating, Cocklebur” value [10, 20] was 0 and the “Cocklebur plant response rating” value ([10]; Preemergence, scale 0 to 100) was 0. The “Plant response rating, Rice” value [11, 21] was 0, the “Plant response rating, Rice” value [11, 22] was 0 and the “Plant response rating, Rice” value [11, 23] was 0. For the same compound, the “Plant response rating, Ducksalad” value [12, 21] was 0, the “Plant response rating, Ducksalad” value [12, 22] was 0 and the “Plant response rating, Ducksalad” value [12, 23] was 0. The “Plant response rating, Sedge, Umbrella” value [13, 21] was 0, the “Plant response rating, Sedge, Umbrella” value [13, 22] was 0 and the “Plant response rating, Sedge, Umbrella” value [13, 23] was 0. For the same compound, the “Plant response rating, Barnyardgrass” value [14, 21] was 0, the “Plant response rating, Barnyardgrass” value [14, 22] was 0 and the “Plant response rating, Barnyardgrass” value [14, 23] was 0.

From patent US20100267561A1, “HERBICIDAL PYRIDAZINONE DERIVATIVES” (priority 2007, published 2010)
